Data from ChEMBL document CHEMBL1909046, “DrugMatrix in vitro pharmacology data”.

What was measured:
[1] = biological target: T1, Neuropeptide Y receptor type 1 (Homo sapiens, UniProt P25929); type: cell membranes, Membrane; conditions: sk-n-mc; further: in other assays of this panel Not Active means under 50% inhibition at 10 µM
T1 sequence (P25929 whole entry): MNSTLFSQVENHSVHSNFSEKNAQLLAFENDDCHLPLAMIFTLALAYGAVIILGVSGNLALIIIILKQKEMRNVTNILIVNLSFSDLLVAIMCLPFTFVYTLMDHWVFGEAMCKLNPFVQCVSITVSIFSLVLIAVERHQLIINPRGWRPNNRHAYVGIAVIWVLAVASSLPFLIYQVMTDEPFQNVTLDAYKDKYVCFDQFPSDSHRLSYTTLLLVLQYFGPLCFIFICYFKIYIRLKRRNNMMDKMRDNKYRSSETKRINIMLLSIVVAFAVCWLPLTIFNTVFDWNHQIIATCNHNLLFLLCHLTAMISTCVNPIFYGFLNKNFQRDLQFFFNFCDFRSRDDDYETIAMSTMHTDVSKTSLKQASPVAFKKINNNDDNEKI

Melanocortin receptor 5 = Melanocortin receptor 5 (Homo sapiens, UniProt P33032); type: cell membranes, HEK293, Membrane; conditions: hek293; further: in other assays of this panel Not Active means under 50% inhibition at 10 µM
Melanocortin receptor 5, sequence (P33032 whole entry): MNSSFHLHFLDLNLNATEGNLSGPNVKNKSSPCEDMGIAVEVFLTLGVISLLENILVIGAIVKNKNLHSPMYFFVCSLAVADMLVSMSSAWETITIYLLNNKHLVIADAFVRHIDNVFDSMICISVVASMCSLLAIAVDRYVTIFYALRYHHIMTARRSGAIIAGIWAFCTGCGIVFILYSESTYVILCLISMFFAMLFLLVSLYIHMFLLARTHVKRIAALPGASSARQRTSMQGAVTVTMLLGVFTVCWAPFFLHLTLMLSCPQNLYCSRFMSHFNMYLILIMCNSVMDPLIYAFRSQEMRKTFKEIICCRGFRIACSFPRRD

[2] = biological target: T2, Amine oxidase [flavin-containing] A (Homo sapiens, UniProt P21397); test: DRUGMATRIX: Monoamine Oxidase MAO-A enzyme inhibition (substrate: Kynuramine); parameters: species or system BTI-TN-5B1-4; conditions: bti-tn-5b1-4; Not Active = under 50% inhibition at 10 µM
T2 sequence (P21397 whole entry): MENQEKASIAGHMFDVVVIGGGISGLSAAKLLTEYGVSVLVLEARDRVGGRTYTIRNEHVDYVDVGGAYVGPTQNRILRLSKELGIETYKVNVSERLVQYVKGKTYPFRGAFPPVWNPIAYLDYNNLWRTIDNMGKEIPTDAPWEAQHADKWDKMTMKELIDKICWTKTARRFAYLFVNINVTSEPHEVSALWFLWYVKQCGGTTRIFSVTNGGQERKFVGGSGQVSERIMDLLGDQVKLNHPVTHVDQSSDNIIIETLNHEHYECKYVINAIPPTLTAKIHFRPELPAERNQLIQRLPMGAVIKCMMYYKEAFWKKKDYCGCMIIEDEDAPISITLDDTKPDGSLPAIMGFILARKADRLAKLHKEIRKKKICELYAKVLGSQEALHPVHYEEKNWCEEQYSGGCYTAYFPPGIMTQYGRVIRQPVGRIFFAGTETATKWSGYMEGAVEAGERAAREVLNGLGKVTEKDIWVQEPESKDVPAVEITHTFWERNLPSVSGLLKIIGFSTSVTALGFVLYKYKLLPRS

[3] = biological target: Beta-2 adrenergic receptor (Homo sapiens, UniProt P07550); test: DRUGMATRIX: Adrenergic beta2 radioligand binding (ligand: [3H] CGP-12177); type: cell membranes, Membrane; conditions: cho; Not Active = under 50% inhibition at 10 µM
Beta-2 adrenergic receptor, sequence (P07550 whole entry): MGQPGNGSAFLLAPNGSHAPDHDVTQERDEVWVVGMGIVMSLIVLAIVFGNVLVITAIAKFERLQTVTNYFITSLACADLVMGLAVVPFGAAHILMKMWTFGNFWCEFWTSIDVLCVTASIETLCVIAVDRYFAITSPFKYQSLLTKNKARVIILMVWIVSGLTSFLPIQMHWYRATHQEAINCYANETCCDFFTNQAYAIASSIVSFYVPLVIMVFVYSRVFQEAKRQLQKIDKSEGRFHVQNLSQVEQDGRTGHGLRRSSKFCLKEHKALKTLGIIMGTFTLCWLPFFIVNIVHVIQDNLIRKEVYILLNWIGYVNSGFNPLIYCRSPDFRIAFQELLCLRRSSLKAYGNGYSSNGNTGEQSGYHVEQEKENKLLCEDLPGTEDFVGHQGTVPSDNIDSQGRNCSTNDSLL

[4] = biological target: Protein phosphatase 3 catalytic subunit alpha (Homo sapiens, UniProt Q08209); parameters: species or system Escherichia coli;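 further: inhibition of calcineurin (PP2B) enzyme activity, measured with DiFMUP as the substrate; in other assays of this panel Not Active means under 50% inhibition at 10 µM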
[5] = DRUGMATRIX: Tumor Necrosis Factor (TNF), Non-Selective radioligand binding (ligand: [125I] TNF-alpha); type: cell membranes, Membrane; conditions: u-937; Not Active = under 50% inhibition at 10 µM
[6] = biological target: T3, Vasoactive intestinal polypeptide receptor 1 (Homo sapiens, UniProt P32241); type: cell membranes, Membrane; conditions: ht-29; further: in other assays of this panel Not Active means under 50% inhibition at 10 µM
T3 sequence (P32241 whole entry): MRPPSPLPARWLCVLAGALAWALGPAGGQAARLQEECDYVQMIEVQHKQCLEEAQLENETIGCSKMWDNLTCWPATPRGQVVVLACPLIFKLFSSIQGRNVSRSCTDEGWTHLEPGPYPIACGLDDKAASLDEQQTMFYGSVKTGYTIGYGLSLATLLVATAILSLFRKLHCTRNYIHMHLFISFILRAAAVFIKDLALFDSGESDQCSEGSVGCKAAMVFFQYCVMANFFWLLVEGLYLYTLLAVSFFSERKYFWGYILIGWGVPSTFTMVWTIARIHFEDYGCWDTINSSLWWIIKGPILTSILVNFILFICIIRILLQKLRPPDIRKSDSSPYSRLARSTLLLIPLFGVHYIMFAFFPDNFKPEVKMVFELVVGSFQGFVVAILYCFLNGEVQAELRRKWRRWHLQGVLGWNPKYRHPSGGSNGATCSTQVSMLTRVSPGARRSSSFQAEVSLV

[7] = DRUGMATRIX: GABAA, Muscimol, Central radioligand binding (ligand: [3H] Muscimol); type: cell membranes, Rattus norvegicus, Wistar, Brain, Membrane; conditions: Not Active = under 50% inhibition at 10 µM
[8] = biological target: T4, Cholecystokinin receptor type A (Homo sapiens, UniProt P32238); type: cell membranes, Membrane; conditions: 1321-n1; further: in other assays of this panel Not Active means under 50% inhibition at 10 µM
T4 sequence (P32238 whole entry): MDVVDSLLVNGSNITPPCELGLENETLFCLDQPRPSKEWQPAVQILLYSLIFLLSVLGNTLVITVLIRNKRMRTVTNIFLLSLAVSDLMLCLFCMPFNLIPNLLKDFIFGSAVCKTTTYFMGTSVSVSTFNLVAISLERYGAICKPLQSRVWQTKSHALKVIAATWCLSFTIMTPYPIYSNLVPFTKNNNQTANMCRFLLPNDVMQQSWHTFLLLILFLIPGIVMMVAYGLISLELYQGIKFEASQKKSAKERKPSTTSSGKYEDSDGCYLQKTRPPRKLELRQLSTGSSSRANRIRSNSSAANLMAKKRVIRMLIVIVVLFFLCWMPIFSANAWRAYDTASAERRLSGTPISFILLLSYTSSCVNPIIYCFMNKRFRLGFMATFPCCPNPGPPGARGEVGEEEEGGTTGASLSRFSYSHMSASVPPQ

Cytochrome P450 2C9 = Cytochrome P450 2C9 (Homo sapiens, UniProt P11712); conditions: bti-tn-5b1-4; further: in other assays of this panel Not Active means under 50% inhibition at 10 µM
Cytochrome P450 2C9, sequence (P11712 whole entry): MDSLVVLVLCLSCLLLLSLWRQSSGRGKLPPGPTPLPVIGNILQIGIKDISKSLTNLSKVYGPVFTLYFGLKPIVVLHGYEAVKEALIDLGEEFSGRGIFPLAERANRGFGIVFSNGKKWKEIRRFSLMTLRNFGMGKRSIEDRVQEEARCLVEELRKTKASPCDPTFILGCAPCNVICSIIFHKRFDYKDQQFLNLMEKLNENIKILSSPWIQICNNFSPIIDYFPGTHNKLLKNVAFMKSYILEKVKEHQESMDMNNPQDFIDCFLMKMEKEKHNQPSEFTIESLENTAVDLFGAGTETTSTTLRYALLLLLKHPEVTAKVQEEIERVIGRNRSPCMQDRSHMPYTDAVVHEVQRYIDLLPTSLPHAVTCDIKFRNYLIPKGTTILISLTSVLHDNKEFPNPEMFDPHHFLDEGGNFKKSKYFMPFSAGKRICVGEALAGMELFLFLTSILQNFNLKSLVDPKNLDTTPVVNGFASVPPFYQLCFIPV

Progesterone receptor = biological target: T5, Progesterone receptor (Bos taurus, UniProt Q690N0); test: DRUGMATRIX: Progesterone radioligand binding (ligand: [3H] R-5020); type: tissue-based, Uterus; conditions: Not Active = under 50% inhibition at 10 µM
T5 sequence (Q690N0 whole entry): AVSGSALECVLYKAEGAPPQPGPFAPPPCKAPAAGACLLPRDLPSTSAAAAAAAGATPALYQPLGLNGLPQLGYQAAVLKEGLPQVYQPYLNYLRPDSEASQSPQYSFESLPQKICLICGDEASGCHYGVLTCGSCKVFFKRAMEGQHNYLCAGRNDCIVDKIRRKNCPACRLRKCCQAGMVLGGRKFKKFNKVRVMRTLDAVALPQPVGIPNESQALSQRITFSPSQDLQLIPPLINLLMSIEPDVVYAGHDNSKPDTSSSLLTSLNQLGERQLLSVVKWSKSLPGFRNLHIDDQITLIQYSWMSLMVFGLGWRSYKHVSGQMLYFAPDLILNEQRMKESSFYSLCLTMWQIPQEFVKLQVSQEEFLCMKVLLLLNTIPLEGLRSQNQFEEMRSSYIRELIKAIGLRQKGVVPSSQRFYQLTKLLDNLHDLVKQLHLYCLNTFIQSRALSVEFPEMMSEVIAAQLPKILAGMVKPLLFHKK

CCOC(=O)c1ccc(N)cc1 [BENZOCAINE]
Not Active: IC50 [1] | IC50 (Melanocortin receptor 5) | IC50 [2] | IC50 [3] | IC50 [4] | IC50 [5] | Ki [5] | IC50 [6] | IC50 [7] | Ki [7] | IC50 [8] | IC50 (Cytochrome P450 2C9) | Ki (Cytochrome P450 2C9) | IC50 (Progesterone receptor)

CC1=Nc2ccc(Cl)cc2S(=O)(=O)N1 [DIAZOXIDE]
Not Active: IC50 [1] | IC50 (Melanocortin receptor 5) | IC50 [2] | IC50 [3] | IC50 [4] | IC50 [5] | Ki [5] | IC50 [6] | IC50 [7] | Ki [7] | IC50 [8] | IC50 (Cytochrome P450 2C9) | Ki (Cytochrome P450 2C9) | IC50 (Progesterone receptor)

COC(=O)[C@H](c1ccccc1Cl)N1CCc2sccc2C1 [CLOPIDOGREL]
Not Active: IC50 [1] | IC50 (Melanocortin receptor 5) | IC50 [2] | IC50 [3] | IC50 [4] | IC50 [5] | Ki [5] | IC50 [6] | IC50 [7] | Ki [7] | IC50 [8] | IC50 (Cytochrome P450 2C9) | Ki (Cytochrome P450 2C9) | IC50 (Progesterone receptor)

O=c1cc(-c2ccccc2)oc2c1ccc1ccccc12 [ALPHA-NAPHTHOFLAVONE]
Not Active: IC50 [1] | IC50 (Melanocortin receptor 5) | IC50 [2] | IC50 [3] | IC50 [4] | IC50 [5] | Ki [5] | IC50 [6] | IC50 [7] | Ki [7] | IC50 [8] | IC50 (Cytochrome P450 2C9) | Ki (Cytochrome P450 2C9) | IC50 (Progesterone receptor)

C=C1[C@@H]2CCC3[C@@](CC[C@@H]4[C@H](C(=O)O)C[C@@H](O[C@@H]5O[C@H](CO)[C@@H](OS(=O)(=O)[O-])[C@H](OS(=O)(=O)[O-])[C@H]5OC(=O)CC(C)C)C[C@@]34C)(C2)[C@@H]1O.[K+].[K+] (stereo not given in full) [ATRACTYLOSIDE]
Not Active: IC50 [1] | IC50 (Melanocortin receptor 5) | IC50 [2] | IC50 [3] | IC50 [4] | IC50 [5] | Ki [5] | IC50 [6] | IC50 [7] | Ki [7] | IC50 [8] | IC50 (Cytochrome P450 2C9) | Ki (Cytochrome P450 2C9) | IC50 (Progesterone receptor)

NS(=O)(=O)c1cc2c(cc1Cl)NCNS2(=O)=O [HYDROCHLOROTHIAZIDE]
Not Active: IC50 [1] | IC50 (Melanocortin receptor 5) | IC50 [2] | IC50 [3] | IC50 [4] | IC50 [5] | Ki [5] | IC50 [6] | IC50 [7] | Ki [7] | IC50 [8] | IC50 (Cytochrome P450 2C9) | Ki (Cytochrome P450 2C9) | IC50 (Progesterone receptor)

Fc1ccc([C@@H]2CCNC[C@H]2COc2ccc3c(c2)OCO3)cc1 [PAROXETINE]
Not Active: IC50 [1] | IC50 (Melanocortin receptor 5) | IC50 [2] | IC50 [3] | IC50 [4] | IC50 [5] | Ki [5] | IC50 [6] | IC50 [7] | Ki [7] | IC50 [8] | IC50 (Cytochrome P450 2C9) | Ki (Cytochrome P450 2C9) | IC50 (Progesterone receptor)

COc1c(N2CCNC(C)C2)c(F)cc2c(=O)c(C(=O)O)cn(C3CC3)c12 (stereo not given) [GATIFLOXACIN]
Not Active: IC50 [1] | IC50 (Melanocortin receptor 5) | IC50 [2] | IC50 [3] | IC50 [4] | IC50 [5] | Ki [5] | IC50 [6] | IC50 [7] | Ki [7] | IC50 [8] | IC50 (Cytochrome P450 2C9) | Ki (Cytochrome P450 2C9) | IC50 (Progesterone receptor)

CC[N+](CC)(CC)CCOc1cccc(OCC[N+](CC)(CC)CC)c1OCC[N+](CC)(CC)CC.[I-].[I-].[I-] [GALLAMINE TRIETHIODIDE]
Not Active: IC50 [1] | IC50 (Melanocortin receptor 5) | IC50 [2] | IC50 [3] | IC50 [4] | IC50 [5] | Ki [5] | IC50 [6] | IC50 [7] | Ki [7] | IC50 [8] | IC50 (Cytochrome P450 2C9) | Ki (Cytochrome P450 2C9) | IC50 (Progesterone receptor)

Nc1nc(=O)[nH]cc1F [FLUCYTOSINE]
Not Active: IC50 [1] | IC50 (Melanocortin receptor 5) | IC50 [2] | IC50 [3] | IC50 [4] | IC50 [5] | Ki [5] | IC50 [6] | IC50 [7] | Ki [7] | IC50 [8] | IC50 (Cytochrome P450 2C9) | Ki (Cytochrome P450 2C9) | IC50 (Progesterone receptor)
